Measured values published in patent publication US20220315895A1, “METHODS OF MAKING OLIGOPOTENT AND UNIPOTENT PRECURSORS” (Transfusion Health, LLC, priority 2019, published 2022).

Tested on: expanded cord blood CD34+ cells, megakaryocyte lineage (CD41, CD42b)
Assay: Megakaryocyte Differentiation Culture after Expansion Culture (Example 38)
Assay type: cell-based, human
Protocol: At days 21 and 63, CD34+ enriched cells were placed into Differentiation Cultures, described below.
Differentiation cultures were initiated using Erythroid, Myeloid (granulocyte and monocyte), and Megakaryocyte HemaTox kits from STEMCELL technologies following the manufacturer's instructions. In brief, lineage media was prepared by adding cytokine cocktails for erythrocyte (SCF, IL-3, and EPO), myeloid (i.e. mixed granulocyte/monocyte, SCF, TPO, G-CSF, and GM-CSF) or megakaryocyte (SCF, IL-6, IL-9 and TPO) lineage differentiation to their respective kits' media, then adding approximately 30-100 CD34+ cells for erythroid or myeloid cultures, or 300-1000 CD34+ cells for megakaryoid cultures. Exact cell numbers plated were quantified for later analysis. All incubations for Differentiation Culture took place at 3% oxygen (controlled by nitrogen) and 5% CO2.
Following seven days of erythroid or myeloid cultures, or ten days for megakaryoid cultures, differentiated cell output was quantified using flow cytometry. Erythroid output was quantified using anti-CD71 and anti-CD235a antibodies, and megakaryocyte lineage output was quantified using anti-CD41 and anti-CD42b antibodies. Granulocyte and monocyte lineage outputs were assessed in tandem, using CD14 and CD15 antibodies, with granulocyte lineage cells being CD15+/CD14−, and monocyte lineage cells being CD14+/CD15−.
A number of quantities were calculated to assess the effect of expansion of CD34+ cells in the +Formula I Condition on the output of lineage differentiated cells. “Per-Assayed-CD34+ Cell Output” describes the output of differentiated cells per CD34+ cell placed into Differentiation Culture, and is calculated by dividing the total number of lineage-positive cells by the input CD34+ cell number quantified at Differentiation Culture initiation at day 1, 21, or 63. […]

Question: `CC(C)(C)C(=O)Nc1ccc2c(c1)C(O)c1ccccc1-2` (stereo not drawn) [Compound 1.010] was tested. Which “fold increase of per-expanded-day-1-CD34+ cell output, total megakaryocyte lineage, over uncultured cells” value (+Formula I expansion to day 21, then 10 days differentiation) did it give?
Answer: 18 fold

Question: What about the “fold increase of per-expanded-day-1-CD34+ cell output, total megakaryocyte lineage, over uncultured cells” value (+Formula I expansion to day 63, then 10 days differentiation) of the same compound?
Answer: 3,400 fold

Question: And the “CD42b+ cells of CD41+ cells” value (Formula I-expanded, either 21 or 63 days of prior Expansion Cell Culture, Megakaryocyte Differentiation Culture)?
Answer: approximately 50%
